Experiments:
Test in all cases: relative viability (nuclei count vs DMSO), 5 days (fraction); higher = more cells survive
201T = system: 201T
Method in brief: (§1)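 Lung cancer cell lines in 1536-well plates got either a single drug or a fixed anchor-drug dose together with five library-drug doses (not always all listed) in √10 steps, by pin tool, on the day after seeding. Nuclei were counted after 5 days, and relative viability is the treated-to-vehicle ratio of nuclei counts. Values are medians of duplicate plates.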

HCC-44 = system: HCC-44
Method in brief: as §1

NCI-H2170 = system: NCI-H2170
Method in brief: as §1

NCI-H647 = system: NCI-H647
Method in brief: as §1

EPLC-272H = system: EPLC-272H
Method in brief: as §1

LCLC-97TM1 = system: LCLC-97TM1
Method in brief: as §1

HCC-827 = system: HCC-827
Method in brief: as §1

SW 1573 = system: SW 1573
Method in brief: as §1

COR-L 105 = system: COR-L 105
Method in brief: as §1

H3255 = system: H3255
Method in brief: as §1

NCI-H2087 = system: NCI-H2087
Method in brief: as §1

PC-3 [JPC-3] = system: PC-3 [JPC-3]
Method in brief: as §1

LU99A = system: LU99A
Method in brief: as §1

NCI-H650 = system: NCI-H650
Method in brief: as §1

NCI-H2342 = system: NCI-H2342
Method in brief: as §1

EKVX = system: EKVX
Method in brief: as §1

NCI-H2085 = system: NCI-H2085
Method in brief: as §1

NCI-H1666 = system: NCI-H1666
Method in brief: as §1

NCI-H1437 = system: NCI-H1437
Method in brief: as §1

LOU-NH91 = system: LOU-NH91
Method in brief: as §1

BEN = system: BEN
Method in brief: as §1

NCI-H1975 = system: NCI-H1975
Method in brief: as §1

## CCN(CC)CCCCNc1ncc2cc(-c3cc(OC)cc(OC)c3)c(NC(=O)NC(C)(C)C)nc2n1 + CC(=O)c1c(C)c2cnc(Nc3ccc(N4CCNCC4)cn3)nc2n(C2CCCC2)c1=O [Palbociclib] (partner 0.5 µM)
201T; first compound 0.01 µM
  relative viability: 0.395
201T; first compound 0.03162 µM
  relative viability: 0.387
201T; first compound 0.1 µM
  relative viability: 0.406
201T; first compound 0.3162 µM
  relative viability: 0.389
201T; first compound 1 µM
  relative viability: 0.372
HCC-44; first compound 0.01 µM
  relative viability: 1.02
HCC-44; first compound 0.03162 µM
  relative viability: 1.07
HCC-44; first compound 0.1 µM
  relative viability: 0.987
HCC-44; first compound 0.3162 µM
  relative viability: 1.04
HCC-44; first compound 1 µM
  relative viability: 1
NCI-H2170; first compound 0.01 µM
  relative viability: 0.38
NCI-H2170; first compound 0.03162 µM
  relative viability: 0.37
NCI-H2170; first compound 0.1 µM
  relative viability: 0.429
NCI-H2170; first compound 0.3162 µM
  relative viability: 0.409
NCI-H2170; first compound 1 µM
  relative viability: 0.385
NCI-H647; first compound 0.01 µM
  relative viability: 0.309
NCI-H647; first compound 0.03162 µM
  relative viability: 0.42
NCI-H647; first compound 0.1 µM
  relative viability: 0.427
NCI-H647; first compound 0.3162 µM
  relative viability: 0.497
NCI-H647; first compound 1 µM
  relative viability: 0.394
EPLC-272H; first compound 0.01 µM
  relative viability: 0.286
EPLC-272H; first compound 0.1 µM
  relative viability: 0.33
EPLC-272H; first compound 0.3162 µM
  relative viability: 0.284
EPLC-272H; first compound 1 µM
  relative viability: 0.339
LCLC-97TM1; first compound 0.01 µM
  relative viability: 0.205
LCLC-97TM1; first compound 0.03162 µM
  relative viability: 0.203
LCLC-97TM1; first compound 0.1 µM
  relative viability: 0.297
LCLC-97TM1; first compound 0.3162 µM
  relative viability: 0.238
LCLC-97TM1; first compound 1 µM
  relative viability: 0.218
HCC-827; first compound 0.01 µM
  relative viability: 0.49
HCC-827; first compound 0.03162 µM
  relative viability: 0.473
HCC-827; first compound 0.1 µM
  relative viability: 0.507
HCC-827; first compound 0.3162 µM
  relative viability: 0.644
HCC-827; first compound 1 µM
  relative viability: 0.454
SW 1573; first compound 0.01 µM
  relative viability: 0.377
SW 1573; first compound 0.03162 µM
  relative viability: 0.407
SW 1573; first compound 0.1 µM
  relative viability: 0.519
SW 1573; first compound 0.3162 µM
  relative viability: 0.398
SW 1573; first compound 1 µM
  relative viability: 0.331
COR-L 105; first compound 0.01 µM
  relative viability: 0.398
COR-L 105; first compound 0.03162 µM
  relative viability: 0.393
COR-L 105; first compound 0.1 µM
  relative viability: 0.427
COR-L 105; first compound 0.3162 µM
  relative viability: 0.423
COR-L 105; first compound 1 µM
  relative viability: 0.405
H3255; first compound 0.01 µM
  relative viability: 0.317
H3255; first compound 0.03162 µM
  relative viability: 0.292
H3255; first compound 0.1 µM
  relative viability: 0.388
H3255; first compound 0.3162 µM
  relative viability: 0.315
H3255; first compound 1 µM
  relative viability: 0.317
NCI-H2087; first compound 0.01 µM
  relative viability: 0.154
NCI-H2087; first compound 0.03162 µM
  relative viability: 0.219
NCI-H2087; first compound 0.1 µM
  relative viability: 0.206
NCI-H2087; first compound 0.3162 µM
  relative viability: 0.234
NCI-H2087; first compound 1 µM
  relative viability: 0.225
PC-3 [JPC-3]; first compound 0.03162 µM
  relative viability: 0.607
PC-3 [JPC-3]; first compound 0.1 µM
  relative viability: 0.616
PC-3 [JPC-3]; first compound 0.3162 µM
  relative viability: 0.539
PC-3 [JPC-3]; first compound 1 µM
  relative viability: 0.58
LU99A; first compound 0.01 µM
  relative viability: 0.364
LU99A; first compound 0.03162 µM
  relative viability: 0.393
LU99A; first compound 0.1 µM
  relative viability: 0.457
LU99A; first compound 0.3162 µM
  relative viability: 0.446
LU99A; first compound 1 µM
  relative viability: 0.338
NCI-H650; first compound 0.01 µM
  relative viability: 0.282
NCI-H650; first compound 0.03162 µM
  relative viability: 0.369
NCI-H650; first compound 0.1 µM
  relative viability: 0.331
NCI-H650; first compound 0.3162 µM
  relative viability: 0.308
NCI-H650; first compound 1 µM
  relative viability: 0.32
NCI-H2342; first compound 0.01 µM
  relative viability: 0.514
NCI-H2342; first compound 0.03162 µM
  relative viability: 0.514
NCI-H2342; first compound 0.1 µM
  relative viability: 0.528
NCI-H2342; first compound 0.3162 µM
  relative viability: 0.548
NCI-H2342; first compound 1 µM
  relative viability: 0.556
EKVX; first compound 0.03162 µM
  relative viability: 0.406
EKVX; first compound 0.1 µM
  relative viability: 0.31
EKVX; first compound 0.3162 µM
  relative viability: 0.817
EKVX; first compound 1 µM
  relative viability: 0.413
NCI-H2085; first compound 0.01 µM
  relative viability: 0.466
NCI-H2085; first compound 0.03162 µM
  relative viability: 0.45
NCI-H2085; first compound 0.1 µM
  relative viability: 0.443
NCI-H2085; first compound 0.3162 µM
  relative viability: 0.468
NCI-H2085; first compound 1 µM
  relative viability: 0.457
NCI-H1666; first compound 0.01 µM
  relative viability: 0.666
NCI-H1666; first compound 0.03162 µM
  relative viability: 0.626
NCI-H1666; first compound 0.1 µM
  relative viability: 0.613
NCI-H1666; first compound 0.3162 µM
  relative viability: 0.649
NCI-H1666; first compound 1 µM
  relative viability: 0.613
NCI-H1437; first compound 0.01 µM
  relative viability: 0.319
NCI-H1437; first compound 0.03162 µM
  relative viability: 0.331
NCI-H1437; first compound 0.1 µM
  relative viability: 0.326
NCI-H1437; first compound 0.3162 µM
  relative viability: 0.303
NCI-H1437; first compound 1 µM
  relative viability: 0.285
LOU-NH91; first compound 0.01 µM
  relative viability: 0.572
LOU-NH91; first compound 0.03162 µM
  relative viability: 0.546
LOU-NH91; first compound 0.1 µM
  relative viability: 0.557
LOU-NH91; first compound 0.3162 µM
  relative viability: 0.491
LOU-NH91; first compound 1 µM
  relative viability: 0.412
BEN; first compound 0.01 µM
  relative viability: 0.489
BEN; first compound 0.03162 µM
  relative viability: 0.417
BEN; first compound 0.1 µM
  relative viability: 0.493
BEN; first compound 0.3162 µM
  relative viability: 0.524
BEN; first compound 1 µM
  relative viability: 0.475
NCI-H1975; first compound 0.01 µM
  relative viability: 0.608
NCI-H1975; first compound 0.03162 µM
  relative viability: 0.498
NCI-H1975; first compound 0.1 µM
  relative viability: 0.589
NCI-H1975; first compound 0.3162 µM
  relative viability: 0.697
NCI-H1975; first compound 1 µM
  relative viability: 0.475
